{"source": "patent US8394828B2", "about": "(Janssen Pharmaceutica, NV, priority 2003, dated 2013)", "key": {"[1]": {"tested_on": "carrageenan paw-induced thermal hyperalgesia", "experiment": "Carrageenan Paw-induced Thermal Hyperalgesia", "format": "in vivo, mice or rats", "details": "30 mg/kg po; read-out: % Recovery"}, "[2]": {"tested_on": "Dextran Sulfate Sodium Induced Colitis", "experiment": "Mouse Colitis Model (Dextran Sulfate Sodium Induced Colitis)", "format": "in vivo, mice", "details": "5% DSS in drinking water, twice daily, orally, 0.05-30 mg/kg", "from_the_text": "These are similar to what occurs in human colitis.\nBalb/c female mice are provided with a solution of tap water containing 5% DSS (ICN chemicals) ad libitum over a 7-day period. […] This material may be administered orally or intraperitoneally, once or twice daily. At the end of this period, the animals are euthanized and their colons are collected for further analysis. Among the parameters analyzed are the length of the colon starting from 1 cm above the anus to the top of the cecum, the weight of the colon, the consistency of any stools found within the colon, and the gross macroscopic appearance of the colon. The distal colon between the 1st and the 4th centimeter are dissected into two halves. One half is placed in 10% neutral buffered formalin for later histological analysis if desired. The other half is cleaned in a bath of physiological buffer, patted dry, weighed and then placed in a solution of 0.5% hexadecyltrimethylammonium bromide (HTAB; Sigma) dissolved in 50 mM phosphate buffer, adjusted to pH 5.4. The tissue sample thus treated is then frozen at −80° C.\nFor the following parameters, colon length, colon weight, stool consistency and appearance and macroscopic damage a scoring system is used to describe the changes. The 4 scores for each animal are added to provide a Total Score. Thus,\nStool Score: • 0=normal (well-formed fecal pellets); • 1=loosely-shaped moist pellets; • 2=amorphous, moist, sticky pellets; • 3=bloody diarrhea. Presence of blood in stool: add 1 to scores <3\nColon Damage Score: • 0=no inflammation • 1=reddening mild inflammation; • 2=moderate inflammation or more widely distributed; • 3=severe inflammation and/or extensively distributed\nColon Weight Score: • 0=<5% weight loss; • 1=5-14% weight loss; • 2=15-24% weight loss; • 3=25-35% weight loss; 4=>35% weight loss.\nColon Length Score: • 0=<5% shortening; • 1=5-14% shortening; • 2=15-24% shortening; • 3=25-35% shortening; • 4=>35% shortening.\nColon weight changes and colon length changes are also directly measured and the net changes compared to DSS and untreated controls are used to calculate a % inhibition of colon weight loss or colon shrinkage induced by DSS treatment.\nThe tissue sample previously frozen at −80° C. in 0.5% solution of HTAB is thawed, homogenized twice for 15 seconds using a Brinkman Polytron homogenizer fitted with a TS10 generator. The crude homogenate is next sonicated at 60 watts for two 5-second bursts and then centrifuged for 20 minutes at 15000×g. The supernatant of this homogenate is collected, aliquoted and frozen at −70° C. for future analysis for myeloperoxidase analysis (MPO). MPO is an intracellular enzyme found in neutrophils and can be considered a surrogate marker for neutrophil infiltration into tissues, including those afflicted with colitis (Diaz-Granados, et al., 2000).\nStatistical analyses were performed by ANOVA using Multiple Comparisons Test and Tukey's test."}, "[3]": {"tested_on": "rings of bronchial tissue obtained from male guinea pigs", "experiment": "Guinea Pig Bronchial Ring Constriction", "details": "tissues exposed to compound for 30 min; capsaicin 10 nM-10 μM; FIG. 7", "description": "Two mm rings of bronchial tissue obtained from male guinea pigs were suspended in normal Krebs solution between two wire hooks under an initial loading tension of 1 gram. The saline was maintained in a 5% CO2 and 95% O2 atmosphere at 37° C. in the presence of indomethacin (5 μM). A sub-maximal dose of 5-methylfurmethide (5 Mef, 1 μM) was added to each tissue to determine responsiveness using an isometric force transducer. After washout, tissues were exposed to compounds or vehicle for 30 min and treated with thiorphan (10 μM, 5% Na2CO3). A concentration-response curve was then constructed using capsaicin (10 nM-10 μM) increasing in 0.5 log unit increments. The dose response curve was calculated as % max of the 5-Mef response and estimated pA2 were determined."}, "[4]": {"tested_on": "mice", "experiment": "Hot-plate test, reference compounds", "format": "in vivo", "details": "i.p., pre-treat time 30 min", "from_the_text": "The hot-plate test originally described by Eddy and Leimbach (J. Pharmacol. Exp. Ther. 107:385-393, 1953) with minor modifications (e.g., O'Callaghan and Holtzman, J. Pharmacol. Exp. Ther. 192: 497-505, 1975) is used to ascertain the analgesic potential of compounds.\nGenerally, male, Swiss-derived albino mice (CRS-CD1®; Charles River Laboratories), weighing 18-24 g at the time of testing or male Sprague Dawley rats (CD1, Charles River Laboratories) 100-300 g are used. The animals are weighed, placed in a plastic box with wood chips (typically 10 mice or 4-6 rats per box) and allowed to acclimate before testing. […]\nAn animal is placed on the heated surface and the time interval between placement and a shaking, licking or tucking of the hindpaw is recorded as the control reaction time (RTC). […] A percent maximum possible effect (% MPE) can also be calculated from the following formula: % MPE=100×(RTdc−RTc)/(CO−RTc), where RTdc and RTc are drug-treated and control reaction times, respectively, and CO is cut-off time.\nAs a screen, the largest possible nontoxic dose of test drug is administered. If activity is detected, and if appropriate, generally 3-5 doses (usually 10 mice or 6-8 rats per dose) are used to construct a dose response curve or time course. […] The ED50 value is determined at the time of peak effect."}}}
{"smiles": "CN(c1ccc(C(=O)Nc2cnc3ccccc3c2)cc1)C1CCCCC1", "note": "[Example 102, 4-(Cyclohexyl-methyl-amino)-N-quinolin-3-yl-benzamide]", "values": [{"measurement": "inhibition in vivo at 30 mg/kg", "setting": "[1]", "result": 55, "unit": "%"}, {"measurement": "inhibition of colon weight loss", "setting": "[2]; FIG. 1", "result": "significant (p<0.05) inhibition"}, {"measurement": "inhibition of colon shrinkage", "setting": "[2]; FIG. 2", "result": "significant (p<0.05) inhibition"}, {"measurement": "Colon Damage Score", "setting": "[2]; FIG. 3", "result": "diminished (p>0.05), but not statistically significantly"}, {"measurement": "Stool Score", "setting": "[2]; FIG. 4", "result": "decreased (p>0.05), but not statistically significantly"}, {"measurement": "inhibition of Total Score", "setting": "[2]; FIG. 5", "result": "significant (p<0.05) inhibition"}, {"measurement": "Myleoperoxidase (MPO) inhibition", "setting": "[2]; colon tissue, FIG. 6", "result": "inhibition (p>0.05)"}]}
{"smiles": "O=C(Nc1cnc2ccccc2c1)c1ccc(N2CC3CCCC(C3)C2)cc1", "note": "[Example 178, 4-(3-Aza-bicyclo[3.3.1]non-3-yl)-N-quinolin-3-yl-benzamide]", "values": [{"measurement": "shift of the capsaicin dose-response curve", "setting": "[3]", "result": "shifted the capsaicin dose-response curve to the right"}]}
{"smiles": "Cc1cc(CC(=O)O)n(C)c1C(=O)c1ccc(Cl)cc1", "note": "[Zomepirac]", "values": [{"measurement": "ED50 (95% C.I.)", "setting": "[4]", "result": "inactive"}]}
